Laboratory results taken from paper PMC8583042, “New Hybrid Compounds Combining Fragments of Usnic Acid and Thioether Are Inhibitors of Human Enzymes TDP1, TDP2 and PARP1” (International Journal of Molecular Sciences, 2021).

Legend:
[1] = Colorimetric cytotoxicity test, HEK293A PARP1-/-; type: cell-based; settings: human, PARP1-/- HEK293A cells; PARP1-/- cell line, intrinsic cytotoxicity (Figure 6); read-out: CC50
From the text: (§1) In our previous works, we checked the cytotoxic effect of Tpc and the TDP1 inhibitors—monoterpene 3-carene-derived compounds [48, 49] and UA combined with monoterpenoids, measured separately and jointly with Tpc—using a panel of HEK293FT and HEK293A Tdp1 knockout isogenic clones. […] The data on the HEK293FT mutants were of low reproducibility, which is why we decided to change the basic cell line to HEK293A [49]. In this work, we created new PARP1-/- HEK293A cells using the CRISPR–Cas9 approach (Figure S27). […] We checked the intrinsic cytotoxicity of the leader compound (10a) on the HEK293 wild type and TDP1-/- and PARP1-/- cell lines using a colorimetric test (Figure 6). […] There was no difference between the WT and mutant cells.
(§2) Cytotoxicity of the compounds was examined against human cell lines HEK293A (human embryonic kidney)—WT, TDP1 deficient (Tdp1-/-), PARP1 deficient (PARP1-/-), and HeLa (cervical cancer) using an EZ4U colorimetric test (Biomedica, Vienna, Austria). […] After the formation of a 30–50% monolayer, the tested compounds were added to the medium, and the cell culture was monitored for 3 days. […] The compound concentration that caused 50% cell growth inhibition was determined using OriginPro 8.6.0 software (OriginLab, Northampton, MA, USA). […]

[2] = Colorimetric cytotoxicity test, HEK293FT; type: cell-based; settings: human, HEK293FT cells, intrinsic cytotoxicity
From the text: (§3) The low intrinsic cytotoxicity of the additional drug component in the clinically used anticancer cocktails with traditional drugs is very important for treatment. This approach in chemotherapy can reduce the potential resulting toxic load on the body in the case of a combined action of these inhibitors on the activity of several targets. […] The effects of the tested compounds on cell survival are shown on Figure 4 and the CC50 values for three cell lines are shown in Table 1. The intrinsic cytotoxicity of a number of the studied compounds is quite high, namely, they have close IC50 values against the TDP1 and CC50 values on one or several studied cell lines. Most of the compounds generally were more toxic for the HEK293FT and HeLa cell lines than for the HEK293A cell line (Table 1 and Figure 4). The cytotoxicity of the three leader compounds, 7g, 10a, and 7h, was quite high. […] Compound 10b was one of the least toxic among the ten tested compounds.
(§4) Cytotoxicity of the compounds was examined against human cell lines HEK293A (human embryonic kidney)—WT, TDP1 deficient (Tdp1-/-), PARP1 deficient (PARP1-/-), and HeLa (cervical cancer) using an EZ4U colorimetric test (Biomedica, Vienna, Austria). The HEK293A cell line was obtained from Thermo Fisher Scientific (Waltham, MA, USA), and the HeLa cell line was obtained from the Russian Cell Culture Collection (RCCC) Institute of Cytology RAS, St. Petersburg, Russia. The cells were grown in DMEM/F12 medium (Gibco, Thermo Fisher Scientific, Waltham, MA, USA), with 1x GlutaMAX (Gibco, Thermo Fisher Scientific, Waltham, MA, USA), 50 IU/mL penicillin, 50 μg/mL streptomycin (MP Biomedicals), and in the presence of 10% fetal bovine serum (Biolot, Saint-Petersburg, Russia) in a 5% CO2 atmosphere. Cells were grown in the presence of 1% DMSO in the control wells. After the formation of a 30–50% monolayer, the tested compounds were added to the medium, and the cell culture was monitored for 3 days. The values were normalized to their own control in each case. At least three independent experiments were carried out. The 50% cytotoxic concentration (CC50) was defined as the compound concentration that reduced the cell viability by 50% when compared to the untreated controls. The compound concentration that caused 50% cell growth inhibition was determined using OriginPro 8.6.0 software (OriginLab, Northampton, MA, USA). The measurements were carried out in three independent experiments.

[3] = test system: HEK293 wild type and TDP1-/- and PARP1-/- cell lines; experiment: Joint action of 10a and Tpc on HEK293 wild type, TDP1-/- and PARP1-/- cells; type: cell-based, human; settings: data not shown
From the text: as §1, §2

[4] = EZ4U colorimetric cytotoxicity test, HEK293A; type: cell-based; settings: human
From the text: as §3, §4

SMILES: CC(=O)C1=C(O)C=C2Oc3c(C(=O)C[S+]([O-])c4nc5ccccc5s4)c(O)c(C)c(O)c3[C@@]2(C)C1=O (stereo partly drawn) [10a, (2R)-4-acetyl-10-[2-(1,3-benzothiazole-2-sulfinyl)acetyl]-5,11,13-trihydroxy-2,12-dimethyl-8-oxatricyclo[7.4.0.0^2,7]trideca-1(13),4,6,9,11-pentaen-3-one]
- CC50 at 3 days [1]: 15 to 20 µM
- CC50 at 3 days [2]: 15 ± 2 µM
- Effect of the joint presence of 10a and Tpc (in words) [3]: did not observe any effect
- CC50 at 3 days ([4]; HEK293A cells, intrinsic cytotoxicity, 3 days, read-out: HEK293A CC50): 20 ± 2 µM
- CC50 at 3 days ([4]; wild-type HEK293A cells, HEK293 wild type, intrinsic cytotoxicity (Figure 6), read-out: CC50): 15 to 20 µM
